We go through ten molecules from ChEMBL document CHEMBL1143657, “Saucerneol B derivatives as human acyl-CoA: cholesterol acyltransferase inhibitors” (Bioorg Med Chem Lett, 2005).

The target of the first test is T1, Sterol O-acyltransferase 1 (Homo sapiens) (UniProt P35610).
T1 sequence (whole entry): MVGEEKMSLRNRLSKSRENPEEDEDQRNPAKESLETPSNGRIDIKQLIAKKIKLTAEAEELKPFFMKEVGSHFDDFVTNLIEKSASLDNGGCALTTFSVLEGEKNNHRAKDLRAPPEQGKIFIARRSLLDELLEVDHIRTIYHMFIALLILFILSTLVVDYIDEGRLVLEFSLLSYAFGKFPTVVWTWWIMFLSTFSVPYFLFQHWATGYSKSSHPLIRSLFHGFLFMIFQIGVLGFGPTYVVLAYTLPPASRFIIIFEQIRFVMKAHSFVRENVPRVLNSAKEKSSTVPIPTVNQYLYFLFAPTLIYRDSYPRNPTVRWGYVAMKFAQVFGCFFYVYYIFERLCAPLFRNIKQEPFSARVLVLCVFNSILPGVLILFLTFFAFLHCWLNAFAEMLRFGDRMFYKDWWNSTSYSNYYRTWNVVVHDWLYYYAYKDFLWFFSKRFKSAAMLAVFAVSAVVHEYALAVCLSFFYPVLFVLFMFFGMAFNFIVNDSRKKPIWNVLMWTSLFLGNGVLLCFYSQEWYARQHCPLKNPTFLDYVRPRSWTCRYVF
Put plainly: In vitro inhibition of human Acyl coenzyme A:cholesterol acyltransferase 1 expressed in Hi5 cells. Conditions: BTI-TN-5B1-4, concentration not given here.
Regarding `CCCCCCCCCOC(c1ccc2c(c1)OCO2)C(OC)Oc1ccc([C@H]2O[C@@H](c3ccc(OC)c(OC)c3)[C@@H](C)[C@H]2C)cc1OC` (some centres not stated), the inhibition (in general, the percentage by which the read-out fell short of the control) was determined as 25%.
In the case of `CCCCCCCCOC(c1ccc2c(c1)OCO2)C(OC)Oc1ccc([C@H]2O[C@@H](c3ccc(OC)c(OC)c3)[C@@H](C)[C@H]2C)cc1OC` (some centres not stated), the inhibition was determined as 44%.

Another test deals with T2, Sterol O-acyltransferase 2 (Homo sapiens) (UniProt O75908).
T2 sequence (whole entry): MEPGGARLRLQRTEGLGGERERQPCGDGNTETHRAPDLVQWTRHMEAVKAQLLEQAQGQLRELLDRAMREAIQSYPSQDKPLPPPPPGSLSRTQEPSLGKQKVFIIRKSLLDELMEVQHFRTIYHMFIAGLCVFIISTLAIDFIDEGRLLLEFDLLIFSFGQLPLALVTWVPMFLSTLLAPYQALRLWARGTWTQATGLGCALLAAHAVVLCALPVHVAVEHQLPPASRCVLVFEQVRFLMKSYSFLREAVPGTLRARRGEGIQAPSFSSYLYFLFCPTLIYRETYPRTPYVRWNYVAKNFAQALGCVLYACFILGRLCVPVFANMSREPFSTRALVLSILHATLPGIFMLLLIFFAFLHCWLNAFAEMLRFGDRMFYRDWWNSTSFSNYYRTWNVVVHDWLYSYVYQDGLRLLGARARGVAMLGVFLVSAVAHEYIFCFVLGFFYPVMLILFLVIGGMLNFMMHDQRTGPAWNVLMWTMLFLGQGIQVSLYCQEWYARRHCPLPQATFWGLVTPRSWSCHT
Kind of test: In vitro inhibition of human Acyl coenzyme A:cholesterol acyltransferase 2 expressed in Hi5 cells at 125 uM. Conditions: BTI-TN-5B1-4.
`CCOC(c1ccc2c(c1)OCO2)C(OC)Oc1ccc([C@H]2O[C@@H](c3ccc(OC)c(OC)c3)[C@@H](C)[C@H]2C)cc1OC` (some centres not stated): the inhibition amounted to 29%.
On the same count and under the same terms, the figure for `CCCCCCOC(c1ccc2c(c1)OCO2)C(OC)Oc1ccc([C@H]2O[C@@H](c3ccc(OC)c(OC)c3)[C@@H](C)[C@H]2C)cc1OC` (some centres not stated) is 33%.
As for `COc1ccc([C@@H]2O[C@H](c3ccc(OC(OC)C(OC)c4ccc5c(c4)OCO5)c(OC)c3)[C@H](C)[C@@H]2C)cc1OC` (some centres not stated), the inhibition is 45%.
`CCCCCCCCCOC(c1ccc2c(c1)OCO2)C(OC)Oc1ccc([C@H]2O[C@@H](c3ccc(OC)c(OC)c3)[C@@H](C)[C@H]2C)cc1OC` (some centres not stated) displayed an inhibition of 10%.
Same read-out and setting: as for `CCCOC(c1ccc2c(c1)OCO2)C(OC)Oc1ccc([C@H]2O[C@@H](c3ccc(OC)c(OC)c3)[C@@H](C)[C@H]2C)cc1OC` (some centres not stated), the figure is 33%; as for `CCCCCOC(c1ccc2c(c1)OCO2)C(OC)Oc1ccc([C@H]2O[C@@H](c3ccc(OC)c(OC)c3)[C@@H](C)[C@H]2C)cc1OC` (some centres not stated), 33%.
On the same count and under the same terms, the figure for `CCCCCCCCOC(c1ccc2c(c1)OCO2)C(OC)Oc1ccc([C@H]2O[C@@H](c3ccc(OC)c(OC)c3)[C@@H](C)[C@H]2C)cc1OC` (some centres not stated) is 19%; for `CCCCCCCOC(c1ccc2c(c1)OCO2)C(OC)Oc1ccc([C@H]2O[C@@H](c3ccc(OC)c(OC)c3)[C@@H](C)[C@H]2C)cc1OC` (some centres not stated) it is 26%; for `CCCCOC(c1ccc2c(c1)OCO2)C(OC)Oc1ccc([C@H]2O[C@@H](c3ccc(OC)c(OC)c3)[C@@H](C)[C@H]2C)cc1OC` (some centres not stated) it is 28%.

A further test concerns the target T3, Sterol O-acyltransferase 2 (Homo sapiens, UniProt O75908).
T3 sequence (O75908 whole entry): T2 sequence (whole entry)
Put plainly: In vitro inhibitory concentration against human Acyl coenzyme A:cholesterol acyltransferase 2 expressed in Hi5 cells. Further details: species or system BTI-TN-5B1-4.
Conditions: not given
For `COc1ccc(C(O)C(C)Oc2ccc([C@H]3O[C@H](c4ccc(OC(C)C(O)c5ccc(OC)c(OC)c5)c(OC)c4)[C@H](C)[C@H]3C)cc2OC)cc1OC` (some centres not stated), the IC50 – broadly, the concentration at which inhibition is half-maximal – is 8 µM.
